Test results reported in patent publication US20240116985A1, “STAPLED PEPTIDES AND METHODS THEREOF” (priority 2020, published 2024).
Converted amounts (≈) assume the structure as drawn. Where two headings read alike, the source gives them in different places.

Experiments:
[1] = biological target: T1, beta-catenin/TCF4 engagement (Homo sapiens, UniProt P35222); experiment: Nano-BRET target engagement assay (B-cat-Halo & TCF4-Luc in HEK293 cells); format: cell-based; details: read-out: NanoBRET Abs IC50
T1 construct: expressed in transfected cells; host or cells: HEK293
T1 sequence (P35222 1-781): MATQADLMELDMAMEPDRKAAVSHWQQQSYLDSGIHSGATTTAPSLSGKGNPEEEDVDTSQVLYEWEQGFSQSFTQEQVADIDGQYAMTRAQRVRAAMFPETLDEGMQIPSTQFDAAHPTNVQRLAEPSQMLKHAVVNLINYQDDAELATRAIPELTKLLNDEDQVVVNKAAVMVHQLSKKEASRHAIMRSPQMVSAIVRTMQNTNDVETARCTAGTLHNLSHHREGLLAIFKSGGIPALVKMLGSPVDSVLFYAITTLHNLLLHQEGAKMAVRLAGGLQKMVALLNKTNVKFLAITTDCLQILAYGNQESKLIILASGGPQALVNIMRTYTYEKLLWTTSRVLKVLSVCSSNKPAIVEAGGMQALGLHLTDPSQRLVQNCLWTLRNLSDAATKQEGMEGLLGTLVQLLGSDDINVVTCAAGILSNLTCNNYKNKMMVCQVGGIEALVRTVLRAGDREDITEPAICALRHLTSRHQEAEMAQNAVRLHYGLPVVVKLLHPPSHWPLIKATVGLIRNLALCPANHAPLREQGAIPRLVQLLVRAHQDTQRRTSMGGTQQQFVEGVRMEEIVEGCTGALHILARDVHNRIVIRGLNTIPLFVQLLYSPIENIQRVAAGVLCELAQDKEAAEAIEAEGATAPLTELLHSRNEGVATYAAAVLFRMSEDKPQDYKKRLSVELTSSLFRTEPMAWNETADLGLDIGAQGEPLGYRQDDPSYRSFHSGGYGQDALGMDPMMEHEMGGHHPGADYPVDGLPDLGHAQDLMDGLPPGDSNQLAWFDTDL

[2] = biological target: T2, full-length beta-Catenin (Uniprot ID P35222) (Homo sapiens, UniProt P35222); experiment: Fluorescence polarization IC50 (beta-catenin / 5FAM-TCF4 10-53 competition); format: binding
T2 construct: 10 nM full-length beta-Catenin (Uniprot ID P35222)
T2 sequence (P35222 1-781): T1 sequence (P35222 1-781)

CHI Log D procedure = format: physicochemical; details: for chromatographic logD: pH 7.4, CHI Log D
Solubility in PBS = format: physicochemical
In short: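 The PBS solution was ultracentrifuged and the supernatant analyzed by HPLC. Its peak area was divided by that of a 50 μM peptide DMSO reference injection and multiplied by 50 uM to give solubility.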

CCCC(=O)NCCCC[C@H](NC(=O)[C@H](CCC(N)=O)NC(=O)[C@H](Cc1csc2ccccc12)NC(=O)[C@H](Cc1ccsc1)NC(=O)[C@]12CCN(C1)C(=O)OCCCC=CCCCC1(CCCC=CC[C@]3(CCCN3C(C)=O)C(=O)N[C@@H](CC(=O)O)C(=O)N[C@@H](CC(C)(C)C)C(=O)N1)C(=O)N[C@@H](CC(=O)O)C(=O)N[C@@H](CC(=O)O)C(=O)N[C@@H](C)C(=O)N[C@@H](C)C(=O)N[C@@H](Cc1ccccc1)C(=O)N[C@@H](CC(N)=O)C(=O)N2)C(N)=O (stereo partly drawn) [I-917, Ac-PL3-Asp-Npg-B5-Asp-Asp-Ala-Ala-Phe-Asn-PyrS2-3Thi-BztA-Gln-[Bua]Lys-NH2]
IC50 [1]: 19.7 µM
IC50 ([2]; read-out: beta-Catenin FP IC50): 12 nM
chromatographic logD (CHI Log D procedure): 2.15
Solubility (Solubility in PBS; Solubility (uM)): 44 µM (≈ 93.1 µg/mL)

CC(=O)N1CCC[C@]12CC=CCCCC1(CCCC=CCCCCCC[C@@](C)(C(=O)N[C@@H](Cc3ccccc3)C(=O)N[C@@H](Cc3csc4ccccc34)C(=O)N[C@@H](CCC(N)=O)C(N)=O)NC(=O)[C@H](CC(N)=O)NC(=O)[C@H](Cc3ccccc3)NC(=O)[C@H](C)NC(=O)[C@H](C)NC(=O)[C@H](CCC(=O)O)NC(=O)[C@H](CC(=O)O)NC1=O)NC(=O)[C@H](CC(C)C)NC(=O)[C@H](CC(=O)O)NC2=O (stereo partly drawn) [I-577, Ac-PL3-Asp-Leu-B5-Asp-Glu-Ala-Ala-Phe-Asn-S8-Phe-BztA-Gln-NH2]
IC50 ([1]; absolute IC50): 10.4 µM
IC50 ([2]; fluorescence polarization, read-out: beta-Catenin FP IC50): 13 nM
IC50 ([2]; read-out: FP EC50): 13 nM
CHI Log D (CHI Log D procedure; pH 7.4): 2.376
Solubility (Solubility in PBS): 47 µM (≈ 87.9 µg/mL)

CC(=O)N1CCC[C@]12CC=CCCCC1(CCCC=CCCCOC(=O)N3CC[C@@](C(=O)N[C@@H](Cc4ccccc4Cl)C(=O)N[C@@H](Cc4csc5ccccc45)C(=O)N[C@@H](CCC(N)=O)C(N)=O)(C3)NC(=O)[C@H](CO)NC(=O)[C@H](Cc3cccc(C(F)(F)F)c3)NC(=O)[C@H](C)NC(=O)[C@H](C)NC(=O)[C@H](CC(=O)O)NC(=O)[C@H](CC(=O)O)NC1=O)NC(=O)[C@H](CC1CCCCC1)NC(=O)[C@H](CC(=O)O)NC2=O (stereo partly drawn) [I-1119, Ac-PL3-Asp-Cha-B5-Asp-Asp-Ala-Ala-3F3MeF-Ser-PyrS2-2C1F-BztA-Gln-NH2]
IC50 [1]: 19.4 µM
IC50 ([2]; read-out: beta-Catenin FP IC50): 26 nM
chromatographic logD (CHI Log D procedure): 2.51
Solubility (Solubility in PBS; Solubility (uM)): 31 µM (≈ 62.4 µg/mL)

CC(=O)N1CCC[C@]12CC=CCCCC1(CCCC=CCCCOC(=O)N3CC[C@@](C(=O)N[C@@H](Cc4ccsc4)C(=O)N[C@@H](Cc4csc5ccccc45)C(=O)N[C@@H](Cc4c[nH]cn4)C(N)=O)(C3)NC(=O)[C@H](CC(N)=O)NC(=O)[C@H](Cc3ccccc3)NC(=O)[C@H](C)NC(=O)[C@H](C)NC(=O)[C@H](CC(=O)O)NC(=O)[C@H](CC(=O)O)NC1=O)NC(=O)[C@H](CCC(C)C)NC(=O)[C@H](CC(=O)O)NC2=O (stereo partly drawn) [I-788, Ac-PL3-Asp-hLeu-B5-Asp-Asp-Ala-Ala-Phe-Asn-PyrS2-3Thi-BztA-His-NH2]
IC50 [1]: 21.6 µM
IC50 ([2]; read-out: beta-Catenin FP IC50): 5 nM
chromatographic logD (CHI Log D procedure): 2.17
Solubility (Solubility in PBS; Solubility (uM)): 31 µM (≈ 59.7 µg/mL)

CC(=O)N1CCC[C@]12CC=CCCCC1(CCCC=CCCCOC(=O)N3CC[C@@](C(=O)N[C@@H](Cc4ccsc4)C(=O)N[C@@H](Cc4csc5ccccc45)C(=O)N[C@@H](CCC(N)=O)C(N)=O)(C3)NC(=O)[C@H](CCCNC(N)=O)NC(=O)[C@H](Cc3ccccc3)NC(=O)[C@H](C)NC(=O)[C@H](C)NC(=O)[C@H](CC(=O)O)NC(=O)[C@H](CC(=O)O)NC1=O)NC(=O)[C@H](CC(C)(C)C)NC(=O)[C@H](CC(=O)O)NC2=O (stereo partly drawn) [I-805, Ac-PL3-Asp-Npg-B5-Asp-Asp-Ala-Ala-Phe-Cit-PyrS2-3Thi-BztA-Gln-NH2]
IC50 [1]: 18.5 µM
IC50 ([2]; read-out: beta-Catenin FP IC50): 5 nM
chromatographic logD (CHI Log D procedure): 1.98
Solubility (Solubility in PBS): 50 µM (≈ 98.1 µg/mL)

CC(=O)N1CCC[C@]12CC=CCCCC1(CCCC=CCCCOC(=O)N3CC[C@@](C(=O)N[C@@H](Cc4ccccc4Cl)C(=O)N[C@@H](Cc4csc5ccccc45)C(=O)N[C@@H](CCC(N)=O)C(N)=O)(C3)NC(=O)[C@H]([C@@H](C)O)NC(=O)[C@H](Cc3ccccc3)NC(=O)[C@H](C)NC(=O)[C@H](C)NC(=O)[C@H](CC(=O)O)NC(=O)[C@H](CC(=O)O)NC1=O)NC(=O)[C@H](CC(C)(C)C)NC(=O)[C@H](CC(=O)O)NC2=O (stereo partly drawn) [I-1013, Ac-PL3-Asp-Npg-B5-Asp-Asp-Ala-Ala-Phe-Thr-PyrS2-2C1F-BztA-Gln-NH2]
IC50 [1]: 12.4 µM
IC50 ([2]; read-out: beta-Catenin FP IC50): 8 nM
chromatographic logD (CHI Log D procedure): 2.13
Solubility (Solubility in PBS; Solubility (uM)): 47 µM (≈ 90.9 µg/mL)
